From patent US20260176274A1, “ENAMINE N-OXIDE TOOLS FOR TARGET IDENTIFICATION APPLICATIONS” (DANA-FARBER CANCER INSTITUTE, INC., priority 2022, published 2026)
“Also recorded” adds a separate entry of the source.

Tests used:
carbonic anhydrase (CA) [1] = molecular target: T1, carbonic anhydrase (CA) (Bos taurus, UniProt P00921); test: Intact mass spectrometry of recombinant carbonic anhydrase labeled with probe; assay type: binding, bovine; design: purchased MP Biomedicals; host or cells: bovine erythrocytes; settings: for labeling of CA (intact mass spectrometry): probe 10 μM, B2(OH)4 100 μM or UV irradiation 10 min
T1 sequence (P00921 whole entry): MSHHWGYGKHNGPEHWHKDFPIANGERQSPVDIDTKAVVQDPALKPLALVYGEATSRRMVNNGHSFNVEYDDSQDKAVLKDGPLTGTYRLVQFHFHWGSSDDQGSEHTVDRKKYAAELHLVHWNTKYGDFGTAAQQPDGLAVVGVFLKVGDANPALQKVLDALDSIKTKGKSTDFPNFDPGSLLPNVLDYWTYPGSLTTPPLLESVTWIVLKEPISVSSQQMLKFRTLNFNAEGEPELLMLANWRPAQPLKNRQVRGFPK
Method: (§1) Tetrahydroxydiboron (10 μL, 5 mM in PBS, pH 7.4; 100 μM final concentration) was subsequently added and gently mixed. The tubes were incubated at rt for an additional 10 min. Subsequently, the sample was concentrated via spin filtration (Amicon® Ultra-0.5 mL, UFC500324, 10 kDa MWCO) following the manufacturer's recommended protocol. PBS was added after each filtration cycle and the concentration was repeated for a total of five times. The eluate was collected in a clean microcentrifuge tube and its concentration determined by NanoDrop (Thermo Fisher Scientific™).
The samples were then transferred onto a 24-well plate and UV irradiated (365 nm) for 10 min on ice. After every 2 min of irradiation, the plate was rotated […] to ensure complete and equal UV exposure. After irradiation, the samples were transferred to a spin filtration column (Amicon® Ultra-0.5 mL, UFC500324, 10 kDa MWCO) and concentrated following the manufacturer's recommended protocol. PBS was added after each filtration cycle, and the concentration was repeated for a total of five times. The eluate was collected in a clean microcentrifuge tube and its concentration determined by NanoDrop (Thermo Fisher Scientific™).
Replicate samples of carbonic anhydrase (n=4; labeled with enamine N-oxide 21′a or diazirine 21′b) were desalted on a self-packed column (500 μm I.D. fused silica packed with 5 cm POROSR2 resin) and gradient eluted (0→100% B in 1 min, A=200 mM acetic acid in water, B=200 mM acetic acid in acetonitrile) to the mass spectrometer (LTQ XL mass spectrometer, Thermo Fisher Scientific; spray voltage=5 kV). The mass spectrometer recorded full scan profile spectra n z 300-2000. Mass spectra were deconvoluted using MagTran version 1.03b2 (Zhang et al., J. Am. Chem. Soc. Mass. Spectrom., 3:225-244 (1998)). Percent labeling was calculated as intensity labeled protein/(intensity unlabeled protein+intensity labeled protein)×100%.

CA2 [2] = molecular target: T2, CA2 (Homo sapiens, UniProt P00918); test: Labeling of endogenous CA in HEK293T cell lysate, streptavidin blot or pulldown and immunoblot against CA2; assay type: binding; settings: probe 200 nM; diboron 100 μM 10 min or UV irradiation 10 min
T2 construct: endogenous in cells; host or cells: HEK293T
Method: For sample preparation, 5× sample loading buffer was added directly at least 10 μg aliquot of the clicked cell lysate clicked with biotin (picolyl) azide. The samples were subsequently heated to 95° C. for 10 min and loaded onto a BioRad Mini-PROTEAN® TGX™ Precast Protein gel, 4-20% (15 μL) and run in freshly prepared Tris-glycine running buffer (160 V, 50 min). The gel was washed (3×DI water) and transferred to a 0.2 μm PVDF membrane. After transfer, the membrane was washed (3×TBST) and blocked with 5% fish skin gelatin (or any appropriate blocking buffer for Western blot) in TBST (rt, 1 h), and subsequently incubated with the appropriate primary antibody (1:1000 dilution in 5% fish skin gelatin in TBST, rt, 1 h). The membrane was washed (3×TBST) and incubated with the appropriate secondary antibody (1:10000 dilution in 5% fish gelatin in TBST, rt, 1 h). The membrane was again washed thoroughly with TBST and imaged using a chemiluminescence imager (Amersham™ Imager 600, GE).
Samples were loaded onto a Bio-Rad Mini-PROTEAN® TGX™ Precast Protein 15-well gel, 4-20% (15 μL) alongside All Blue Prestained Protein Standard (Bio-Rad, 5 μL) as a ladder, and run in freshly prepared Tris-glycine running buffer (180 V, 45 min). The gel was washed (3×50 mL deionized water) and transferred to a 0.2 m low fluorescence PVDF membrane (Bio-Rad) using a semi-dry transfer apparatus (Bio-Rad Trans-Blot® Turbo™ Transfer System) and preprogrammed transfer setting (1.3 A, 25 V, 10 min).

validated targets = test: Target identification in cell lysate: BARS probe, diboron activation, streptavidin pulldown, immunoblot against validated targets; assay type: binding; settings: K562 (24′a) or HepG2 (26′a) cell lysate; probe 1 μM, B2(OH)4 100 μM 10 min
Method: The click-modified cell lysate (3 mg) was transferred to 15 mL centrifuge tubes and precipitated via methanol/chloroform precipitation using the following protocol. Methanol (6 mL) was added to the lysate and vortexed. Chloroform (1.5 mL) was subsequently added and vortexed. Finally, water (4 mL) was added and vortexed. The samples were centrifuged (3000×g, 5 min, 4° C.). The top aqueous layer was removed, and methanol (8 mL) was subsequently added and vortexed. The samples were centrifuged (3000×g, 5 min, 4° C.), the supernatant was removed, and the methanol wash was repeated once more. […]
Samples were loaded onto a Bio-Rad Mini-PROTEAN® TGX™ Precast Protein 15-well gel, 4-20% (15 μL) alongside All Blue Prestained Protein Standard (Bio-Rad, 5 μL) as a ladder, and run in freshly prepared Tris-glycine running buffer (180 V, 45 min). The gel was washed (3×50 mL deionized water) and transferred to a […] low fluorescence PVDF membrane (Bio-Rad) using a semi-dry transfer apparatus (Bio-Rad Trans-Blot® Turbo™ Transfer System) and preprogrammed transfer setting (1.3 A, 25 V, 10 min). […]
Enamine N-oxide probe (15 μL; 200 nM or 1 μM final concentration for probe 21′a, […] for probes 22′a-26′a) was added to a microcentrifuge tube containing cell lysate (3 mg, as determined by BCA assay) suspended in cold NP40 lysis buffer (1.455 mL). […]

carbonic anhydrase (CA) [3] = molecular target: T1, carbonic anhydrase (CA); test: Ligand-directed labeling of equimolar recombinant BSA/CA mixture, in-gel fluorescence; assay type: binding; settings: equimolar BSA and CA; probe 200 nM, B2(OH)4 100 μM, 10 min, PBS pH 7.4
Method: An equimolar suspension of recombinant BSA and recombinant CA was prepared by combining BSA (22 μg, 1 mg/mL in PBS, pH 7.4) and CA (10 pg, 1 mg/mL in PBS, pH 7.4) in PBS, pH 7.4 (1 mL). This was approximately 333 nM of each protein. For each reaction, an aliquot of this mixture (97 μL) was added to a microcentrifuge tube. […] Sulfonamide competitor (21′, 1 μL, 5 mM solution in 1% DMSO/PBS; 50 μM final concentration) or PBS, pH 7.4 (1 μL) vehicle control was added to the samples. The tubes were incubated at rt for 30 min. Tetrahydroxydiboron (1 μL, 10 mM solution; 100 μM final concentration) was subsequently added with gentle mixing. The tubes were incubated at rt for an additional 10 min. Subsequently, CuAAC click-cocktail solution containing TAMRA-azide (6 μL) was added and the tubes were incubated at rt in the dark for 1 h.
For sample preparation, 5× sample loading buffer (25 μL) was added directly to the TAMRA-modified BSA/CA samples. The samples were subsequently heated to 95° C. for 10 min and then subjected to SDS-PAGE and in-gel fluorescence imaging. In-gel fluorescence imaging was performed on a Typhoon™ FLA 9500 (GE) at 532 nm with photomultiplier tube (PMT) setting of 300 V.

carbonic anhydrase = molecular target: T3, carbonic anhydrase (Bos taurus, UniProt P00921); test: Labeling site identification on recombinant carbonic anhydrase by nano-LC-MS/MS; design: species or system bovine; settings: probe 10 μM, B2(OH)4 100 μM
T3 construct: purchased MP Biomedicals; host or cells: bovine erythrocytes
T3 sequence (P00921 whole entry): as above
Method: as §1, with “BARS probe 21′a: Enamine N-oxide 21′a (10 μL, 500 μM in PBS, pH 7.4; 10 μM final concentration) was added to an aliquot of recombinant CA from bovine erythrocytes ([…], MP Biomedicals) suspended in 480 μL PBS, pH 7.4 in a microcentrifuge tube and incubated at rt for 30 min. Tetrahydroxydiboron” for “Tetrahydroxydiboron”
An aliquot of carbonic anhydrase labeled with enamine N-oxide 21′a (prepared from the above procedure) was reduced with dithiothreitol (10 mM final concentration, 56° C., 30 min), alkylated with iodoacetamide (22.5 mM final concentration, rt, 30 min protected from light), and digested overnight with Glu-C (1:20) at 37° C. in 100 mM ammonium bicarbonate. Peptides were desalted using SP3 beads and analyzed by nano-LC-MS/MS using a nanoAcquity UPLC system interfaced to a QExactive HF mass spectrometer (Ficarro et al., Anal. Chem., 9:3440-3447 (2009)). […]

CA2 [4] = molecular target: T2, CA2; test: In cellulo BARS labeling in live HEK293T cells, immunoblot against CA2; assay type: cell-based; settings: probe 5 μM 2 h, wash, B2(OH)4 100 μM 10 min
Method: HEK293T cells were cultured in DMEM containing 10% FBS (Sigma), 100 units/mL penicillin, and 0.1 mg/mL streptomycin (Sigma) in a humidified chamber at 37° C. under an ambient atmosphere with 5% CO2. After culturing to >80% confluency in 150 mm plates, the plates were removed from the incubator, the media was aspirated, and the cells were trypsinized at 37° C. with 0.25% trypsin, 0.1% EDTA in HBSS (3 mL). After 3 min, complete growth medium (7 mL) was added to the detached cells, and the cell suspension was transferred to a 50 mL centrifuge tube. Cells were pelleted (400×g, 4 min, 23° C.) and washed with 2×20 mL PBS, pH 7.4. At this point, the density of the cell suspension in PBS was determined by the trypan blue exclusion method. The cells were pelleted once more, and the volume of PBS was adjusted to produce a cell suspension with a final density of 2×10^7 cells/mL. The cell suspension was aliquoted into 2 mL microcentrifuge tubes (3×1 mL, 2×10^7 cells each). […] Competitor 21′ (50 μM final concentration, from a 500 mM stock in DMSO) was also added to the third tube. The samples were incubated at 37° C. with end-over-end rotation. After 2 h of incubation, the cells were pelleted (400×g, 4 min, 23° C.) and washed once with PBS, pH 7.4.

Row | labeling of CA (intact mass spectrometry) (carbonic anhydrase (CA) [1]) | SMILES | labeling of endogenous CA in HEK293T cell lysate (CA2 [2]) | additional targets pulled down (validated targets) | other results
1 | – | CCN(CC)C(=O)C=CCCc1ccccc1 [compound 13, reference compound] | barely perceptible | – | protein labeled (intact mass spectrometry of CA) (carbonic anhydrase (CA) [1]; N-oxide probe plus diboron or diazirine probe plus UV irradiation): < 1%
2 | – | C#CCCC[N+](C)([O-])/C(Br)=C/C(Cl)CCCC(=O)N(C)[C@@H]1C[C@H]2O[C@@](C)([C@@H]1OC)n1c3ccccc3c3c4c(c5c6ccccc6n2c5c31)C(=O)NC4 (stereo partly drawn) [26′a, (Z)-1-Bromo-3-chloro-7-(((5S,6R,7R,9R)-6-methoxy-5-methyl-14-oxo-6,7,8,9,15,16-hexahydro-5H,14H-17-oxa-4b,9a,15-triaza-5,9-methanodibenzo[b,h]cyclonona[jkl]cyclopenta[e]-as-indacen-7-yl)(methyl)amino)-N-methyl-7-oxo-N-(pent-4-yn-1-yl)hept-1-en-1-amine oxide] | – | PKC and SRC pulled down | –
3 | 3.6% | C#CCCC1(CCNC(=O)CCOCCOCCOCCNC(=O)c2ccc(S(N)(=O)=O)cc2)N=N1 [21′b, N-(15-(3-(but-3-yn-1-yl)-3H-diazirin-3-yl)-12-oxo-3,6,9-trioxa-13-azapentadecyl)-4-sulfamoylbenzamide, reference compound] | – | – | –
4 | 51.8% | C#CCCC[N+](C)([O-])C(Br)=CC(Cl)CCCC(=O)NCCCOCCOCCOCCCNC(=O)c1ccc(S(N)(=O)=O)cc1 (centres unmarked) [21′a, 23-Bromo-21-chloro-N-methyl-1,17-dioxo-N-(pent-4-yn-1-yl)-1-(4-sulfamoylphenyl)-6,9,12-trioxa-2,16-diazatricos-22-en-23-amine oxide] | could also be labeled; also recorded: superior labeling | – | improvement of CA labeling, enamine N-oxide over diazirine (carbonic anhydrase (CA) [1]; 51.8% vs 3.6% labeling): 14.4 fold; selectivity of labeling, CA over BSA (carbonic anhydrase (CA) [3]): CA was preferentially labeled over BSA; labeling sites on CA N-terminal peptide (carbonic anhydrase): His2 or His3; target identification in live HEK293T cells (CA2) (CA2 [4]): positively identified
5 | – | C#CCCC[N+](C)([O-])/C(Br)=C/C(Cl)CCCC(=O)NCCCCCCNc1cc(Nc2ncc(C(=O)Nc3c(C)cccc3Cl)s2)nc(C)n1 (centres unmarked) [24′a, (Z)-1-Bromo-3-chloro-7-((6-((6-((5-((2-chloro-6-methylphenyl)carbamoyl)thiazol-2-yl)amino)-2-methylpyrimidin-4-yl)amino)hexyl)amino)-N-methyl-7-oxo-N-(pent-4-yn-1-yl)hept-1-en-1-amine oxide] | – | ABL and p38 pulled down | –
